Test results published in PubChem BioAssay (NCI).
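Tested at 5 concentrations; 48 h exposure; 96-well plates; endpoints linearly interpolated, else capped at highest concentration. TGI marks complete inhibition of growth.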 Where a SMILES comes first, the peptide text is derived from it. [ ]: non-standard residue; d: D form. The star is where a group is joined. ξ: configuration not given here. ξD = NC(CC(=O)O)C(=O)O; Boc = CC(C)(C)OC(=O)*; Aib = CC(C)(N)C(=O)O; OtBu = CC(C)(C)O*

Tests used:
Experiment in all cases: NCI anticancer screen, dose series, 48 h
RXF 393 renal = tested on: RXF 393 renal
COLO 205 colon = tested on: COLO 205 colon
NCI-H23 lung = tested on: NCI-H23 lung
HOP-92 NSCLC = tested on: HOP-92 NSCLC
OVCAR-5 ovarian = tested on: OVCAR-5 ovarian
U251 CNS = tested on: U251 CNS
SNB-75 CNS = tested on: SNB-75 CNS
786-0 renal = tested on: 786-0 renal
HOP-62 NSCLC = tested on: HOP-62 NSCLC
OVCAR-3 ovarian = tested on: OVCAR-3 ovarian
LOX IMVI melanoma = tested on: LOX IMVI melanoma
MOLT-4 leukemia = tested on: MOLT-4 leukemia
NCI-H226 lung = tested on: NCI-H226 lung
MALME-3M melanoma = tested on: MALME-3M melanoma
NCI-H460 lung = tested on: NCI-H460 lung
MCF7 breast = tested on: MCF7 breast
EKVX NSCLC = tested on: EKVX NSCLC
M14 melanoma = tested on: M14 melanoma
HCT-15 colon = tested on: HCT-15 colon
HT29 colon = tested on: HT29 colon
SW-620 colon = tested on: SW-620 colon
CAKI-1 renal = tested on: CAKI-1 renal
SF-268 CNS = tested on: SF-268 CNS
MDA-MB-435 = tested on: MDA-MB-435
UO-31 renal = tested on: UO-31 renal
K-562 leukemia = tested on: K-562 leukemia
TK-10 renal = tested on: TK-10 renal
PC-3 prostate = tested on: PC-3 prostate
T-47D breast = tested on: T-47D breast
UACC-62 melanoma = tested on: UACC-62 melanoma
DU-145 prostate = tested on: DU-145 prostate
HS 578T breast = tested on: HS 578T breast
SK-OV-3 ovarian = tested on: SK-OV-3 ovarian
ACHN renal = tested on: ACHN renal
SK-MEL-5 melanoma = tested on: SK-MEL-5 melanoma
OVCAR-4 ovarian = tested on: OVCAR-4 ovarian
NCI-H522 lung = tested on: NCI-H522 lung
SF-539 CNS = tested on: SF-539 CNS
A498 renal = tested on: A498 renal
A549 NSCLC = tested on: A549 NSCLC
SNB-19 CNS = tested on: SNB-19 CNS
BT-549 breast = tested on: BT-549 breast
UACC-257 melanoma = tested on: UACC-257 melanoma
SF-295 CNS = tested on: SF-295 CNS
CCRF-CEM leukemia = tested on: CCRF-CEM leukemia
OVCAR-8 ovarian = tested on: OVCAR-8 ovarian
HCT-116 colon = tested on: HCT-116 colon
SK-MEL-28 melanoma = tested on: SK-MEL-28 melanoma
IGROV1 ovarian = tested on: IGROV1 ovarian
KM12 colon = tested on: KM12 colon
MDA-MB-231 breast = tested on: MDA-MB-231 breast
RPMI-8226 leukemia = tested on: RPMI-8226 leukemia
NCI/ADR-RES ovarian = tested on: NCI/ADR-RES ovarian
SK-MEL-2 melanoma = tested on: SK-MEL-2 melanoma

Measured: TGI

COC(=O)C(C)(C)NC(=O)C(C)(C)NC(=O)C(CC(=O)OC(C)(C)C)NC(=O)OC(C)(C)C (centres undefined) (Boc-[ξD](OtBu)-[Aib]-[Aib]-OMe)
> 100 µM: all assays above
